Data reported in ChEMBL document CHEMBL1152206, “Vasodilatation effect of farnesylacetones, active constituents of Sargassum siliquastrum, on the basilar and carotid arteries of rabbits” (Bioorg Med Chem Lett, 2008).

Tests used:
[1] = Vasorelaxant activity against depolarization-induced basilar artery constriction in white rabbit; format: functional, tissue-based, Oryctolagus cuniculus
[2] = Vasorelaxant activity against depolarization-induced carotid artery constriction in white rabbit; format: functional, tissue-based, Oryctolagus cuniculus

| EC50 [1] | EC50 [2] | SMILES |
| --- | --- | --- |
| 3.72 µM | 14.5 µM | CC(=O)CC/C=C(\C)CCC/C(C)=C\C(=O)CC(C)C |
| 1.22 µM | 13.7 µM | CC(=O)CC/C=C(\C)CCC/C(C)=C/C(=O)CC(C)C |
